Test results: patent publication US5814628A, “Benzyl-substituted compounds having dopamine receptor affinity” (Allelix Biopharmaceuticals Inc., priority 1996, dated 1998)

Key:
[1] = target: T1, human D4 receptor (D4.2 sub-type) (Homo sapiens, UniProt P21917, DEL265-296); test: D4 receptor-binding affinity (displacement of 3H-spiperone); conditions: 3H-spiperone 0.25 nM, HEK 298 cell membranes, Cheng and Prustoff transformation
T1 construct: expressed in transfected cells; host or cells: HEK 298 (human embryonic kidney); homogenate used
T1 sequence (P21917 with tags, fused parts or gaps DEL265-296): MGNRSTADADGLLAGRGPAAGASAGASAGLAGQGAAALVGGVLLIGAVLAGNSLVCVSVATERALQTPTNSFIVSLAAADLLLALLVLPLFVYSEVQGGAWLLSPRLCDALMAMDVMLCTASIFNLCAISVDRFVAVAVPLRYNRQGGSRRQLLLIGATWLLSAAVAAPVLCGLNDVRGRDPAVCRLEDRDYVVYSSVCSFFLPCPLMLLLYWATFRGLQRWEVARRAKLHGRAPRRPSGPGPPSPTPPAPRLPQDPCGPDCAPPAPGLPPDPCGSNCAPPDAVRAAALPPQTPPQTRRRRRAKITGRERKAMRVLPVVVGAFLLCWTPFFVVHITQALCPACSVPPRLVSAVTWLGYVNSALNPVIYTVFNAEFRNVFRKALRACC
Description: The potency of the test compound to reduce ^3 H-spiperone binding directly correlated to its binding affinity for the receptor.
The cells were then centrifuged in a Sorval centrifuge for 10 minutes, 5000 rpm (GS3 rotor) and the pellets quickly frozen in liquid nitrogen and stored at -80° C. until used in binding assay.
Concentration of receptor protein was determined using the Pierce BCA assay.
The tubes were vortexed and incubated at room temperature for 90 minutes. The binding reaction was stopped by filtering using a Brandell Cell Harvester. The samples were filtered under vacuum over glass fibre filters (Whatman GF/B) presoaked for 2 hours in 0.3% polyethylenimine (PEI) in 50 mM Tris buffer (pH7.4). The filters were then washed 3 times with 5 mL ice cold 50 mM Tris buffer (pH7.4). Individual filter disks were put in scintillation vials (Biovials, Bechman).
The tubes were vortexed and incubated at room temperature for 90 minutes at which time the binding reaction was stopped by filtering. The filters were washed and counted using the same procedure as in the total binding assay described above to give the non-specific binding value (NSB).
The incubation was started by the addition to 12×75 mm polypropylene tubes 500 μl (50 μg protein) membrane homogenate to a solution of 400 μl incubation buffer, 100 μl (0.25 final conc.) ^3 H-spiperone (90Ci/mmol, Amersham, diluted in borosilicate glass vial to) and […] of test compound that was prepared from 1 mM stock dissolved in DMSO and stored at -20° C. in polypropylene cryogenic storage vials until dilution in incubation buffer in borosilicate glass vials. The tubes were vortexed and incubated at room temperature for 90 minutes at which time the binding reaction was stopped by filtering. The filters were washed and counted using the same procedure as in the total binding assay described above to give the displacement binding value (BD).
IC50 was determined from an inhibition response curve, logit-log plot of %B/B0 vs concentration of test compound.
Ki was calculated by the Cheng and Prustoff transformation: […]
where [L] is the concentration of ^3 H-spiperone used in the assay and KD is the dissociation constant of ^3 H-spiperone determined independently under the same binding conditions.

[2] = tested on: human D2 receptor (short isoform) relative to human D4 receptor (D4.2 sub-type); test: D4 selectivity: D2 versus D4 receptor binding (displacement of 3H-spiperone); conditions: D2/D4 ratio, D2 in GH4 C1 cells, D4 in HEK 298 cells
Description: The potency of the test compound to reduce ^3 H-spiperone binding directly correlated to its binding affinity for the receptor. […] When used in the assay, cells were thawed on ice for 20 minutes and then 10 mL of incubation buffer (50 mM Tris, 1 mM EDTA, 4 mM MgCI2, 5 mM KCI, 1.5 mM CaCI2, 120 mM NaCI, pH7.4) was added. […] Concentration of receptor protein was determined using the Pierce BCA assay. […] After 16 hours, fresh media was added to allow the cells to recover for 24 hours. The cells were harvested using versene and then centrifuged in a Sorval centrifuge for 10 minutes, at 5000 rpm (GS3 rotor). Pellets were quickly frozen in liquid nitrogen and stored at -80° C. until used in the binding assays. When used in the assay, cells were thawed on ice for 20 minutes. […] The receptor protein concentration was determined using the Pierce BCA assay. […] The tubes were vortexed and incubated at room temperature for 90 minutes. The binding reaction was stopped by filtering using a Brandell Cell Harvester. The samples were filtered under vacuum over glass fibre filters (Whatman GF/B) presoaked for 2 hours in 0.3% polyethylenimine (PEI) in 50 mM Tris buffer (pH7.4). The filters were then washed 3 times with 5 mL ice cold 50 mM Tris buffer (pH7.4). Individual filter disks were put in scintillation vials (Biovials, Bechman). […] The tubes were vortexed and incubated at room temperature for 90 minutes at which time the binding reaction was stopped by filtering. The filters were washed and counted using the same procedure as in the total binding assay described above to give the non-specific binding value (NSB). […] The tubes were vortexed and incubated at room temperature for 90 minutes at which time the binding reaction was stopped by filtering. The filters were washed and counted using the same procedure as in the total binding assay described above to give the displacement binding value (BD). […] IC50 was determined from an inhibition response curve, logit-log plot of %B/B0 vs concentration of test compound.

D4 receptor = conditions: marketed products, background section; read-out: D4 affinity, Ki value; cited from earlier work
[3] = tested on: D4 receptor relative to the D2 receptor; conditions: marketed products, background section; cited from earlier work

| Ki [1] [nM] | D2/D4 [2] | SMILES | Ki (D4 receptor) [nM] | preference for binding the D4 receptor relative to the D2 receptor [3] |
| --- | --- | --- | --- | --- |
| 134 | 21.7 | N#Cc1cccc(CN2CCN(C3=Nc4ccccc4Oc4ccccc43)CC2)c1 [11-[4-(3-cyanobenzyl)-1-piperazinyl]dibenz[b,f][1,4]oxazepine] |  |  |
|  |  | CN1CCN(C2=Nc3cc(Cl)ccc3Oc3ccccc32)CC1 [isoloxapine] | ~20 | about 10 fold |
| 519 | 16.1 | N#Cc1ccccc1CN1CCN(C2=Nc3ccccc3Oc3ccccc32)CC1 [11-[4-(2-cyanobenzyl)-1-piperazinyl]dibenz[b,f][1,4]oxazepine] |  |  |
| 19 | 31.7 | Clc1ccc2c(c1)N=C(N1CCN(Cc3ccccc3)CC1)c1ccccc1O2 [8-Chloro-11-(4-benzyl-1-piperazinyl)-dibenz[b,f][1,4]oxazepine] |  |  |
| 108 | 90.1 | N#Cc1ccc(CN2CCN(C3=Nc4ccccc4Oc4ccccc43)CC2)cc1 [11-[4-(4-cyanobenzyl)-1-piperazinyl]dibenz[b,f][1,4]oxazepine] |  |  |
